# Data taken from publication PMC11161644, “An effective and rapidly degradable disinfectant from disinfection byproducts” (Nature Communications, 2024).
# Several values for one entry are separate records, joined by “and”; a condition that tells them apart may be missing. Equal values may be shown once. Read-outs that look alike come from different tables or passages of the source.
# Experiments:
# E. coli (ATCC 25922) = assay: Inactivation of E. coli by disinfectants (membrane filter enumeration, contact time 5 min); format: cell-based, Escherichia coli; conditions: for log reduction at 3000 µg/mL: dose 3000 mg L-1, read-out: Log (N/N0); for log reduction at 3000 µg/mL / log reduction at 1200 µg/mL: 5 min; for E. coli inactivation rate constant k / Log reduction (Mean ± SD): pH 7.2, contact time 5 min; for log reduction at 1200 µg/mL: dose 1200 mg L-1; for Log reduction (Mean ± SD): E. coli
# Protocol: (§1) The chemicals and reagents used are detailed in Supplementary Note 1. The bacteria E. coli (ATCC 25922) and S. aureus (ATCC 25923) were cultured aerobically in Luria-Bertani broth (Sigma-Aldrich) and Tryptone Soya broth (Oxoid), respectively, at 37 °C for 16 h. The fungus C. albicans (ATCC 14053) was aerobically cultured in Sabouraud Dextrose broth (Difco) at 37 °C for 24 h. The microorganism cells were harvested by centrifugation at 1200×g (10 min, 4 °C) and resuspended in phosphate-buffered saline (PBS, 10 mM, pH 7.2). The disinfection experiments were performed in PBS solutions (10 mM, pH 7.2) with an initial concentration of E. coli, S. aureus, or C. albicans of 10^6‒10^7 cells per milliliter. A contact time of 5 min was used in accordance with the recommended time range of 0.25–10 min by USEPA for surface disinfection. Preliminary tests were conducted to determine the appropriate range of DBP doses. The appropriate dose range was established when the lowest and highest doses could achieve <1-log and >3-log of microbial inactivation, respectively. Based on the preliminary results, a series of doses of DBPs were added to the cell suspensions at room temperature (22 ± 1 °C). After the contact time of 5 min, the microorganism cells were enumerated following a membrane filter method. Briefly, serial 10-fold dilutions were conducted for the disinfected samples and the control sample without disinfection. Each diluted suspension was subjected to filtration through 0.45-μm membrane, which was then placed on a petri dish. The Petri dishes containing E. coli, S. aureus, and C. albicans were incubated in m-FC medium (Becton Dickinson & Co) at 45 °C for 24 h, in Tryptone Soya broth at 37 °C for 24 h and in Sabouraud Dextrose broth at 37 °C for 24 h, respectively. After incubation, the colony-forming units within a statistically reasonable range (20–80) were counted.
# The impact of pH on the disinfection efficiencies of DBPs was examined. E. coli (ATCC 25922) was used as the test strain. The disinfection experiments were performed in 10 mM PBS solutions (pH 6.2, 7.2, and 8.2) with an initial E. coli concentration of 10^6‒10^7 cells per milliliter. To initiate the disinfection, a DBP was dosed with a bacteria suspension at a predetermined concentration. After the given contact time (5 min) at room temperature (22 ± 1 °C), the bacteria were enumerated following the membrane filter method. The bacteria concentrations in the 10 mM PBS solutions (pH 6.2, 7.2, and 8.2) without the addition of DBPs were used as controls.
# S. aureus (ATCC 25923) = assay: Inactivation of S. aureus (contact time 5 min); format: cell-based, Staphylococcus aureus; conditions: Staphylococcus aureus, ATCC25923, 5 min, pH 7.2, read-out: Log (N/N0), S. aureus; dose 300 mg L-1; pH 7.2; contact time 5 min
# Protocol: as §1
# P. dumerilii embryos = assay: Developmental toxicity assay with P. dumerilii embryos, dilution factor of in-use concentration (EC50,DF), also after degradation in darkness; format: in vivo, Platynereis dumerilii
# Text: The DBP doses for 3-log E. coli reduction (pH 7.2) were set as the in-use concentrations, which were serially diluted and added to the P. dumerilii embryos at 12-h postfertilization. A dilution factor was defined as the ratio of the in-use concentration to the exposure concentration. Each exposure set contained a control sample (i.e., the embryos at 12-h postfertilization developed in seawater without the addition of DBPs). By 24-h postfertilization, normally developed embryos should have reached the first larval stage. An inverted stereomicroscope (×40 magnification) was used to observe the larvae. The normal development percentage was calculated as the ratio of normally developed embryos to total embryos. By plotting the curve of the normal development percentage versus the dilution factor, the EC50,DF value (i.e., the dilution factor corresponding to 50% of the normal development percentage of the control sample) was obtained using SigmaPlot 12. The developmental toxicity test was conducted in duplicate.
# [1] = Degradation in seawater with simulated solar irradiation
# Protocol: The solar photolysis experiments were conducted in a chamber equipped with eight simulated sunlight full-spectrum lamps (BlueMax 5900, Full Spectrum Solutions). The temperature in the chamber was maintained at 20 °C. The total intensity of simulated sunlight was determined using a digital photometer (DT-1010B, Shenzhen Golden Octopus, China). Quartz flasks were positioned in the chamber where the total intensity of simulated sunlight was 4.79 ± 0.04 mW cm^−2 for each quartz flask. […] A DBP was added at 10 mg L^−1 to 50 mL pretreated seawater (pH 8.2) in the quartz flasks and exposed to the simulated solar irradiation for 0‒96 h. Every 8 h, the quartz flasks were rotated in and out of the chamber, and the sample volume was determined and adjusted with ultrapure water to account for any water evaporation. During the solar irradiation experiments, the sample was adjusted to pH 6.2 and 7.2 or maintained at pH 8.2 by adding 4 mM phosphate buffer (pH 6.2, 7.2, and 8.2, respectively).
# (§2) For the DBP samples with and without sunlight, aliquots were taken at a specific reaction time. The sample aliquots were analyzed using Agilent high-performance liquid chromatography (HPLC) equipped with a Poroshell 120 EC-C18 column (4.6 × 150 mm, 4 µm particle size, Agilent) and a UV detector. The mobile phase, consisting of water (pre-adjusted to pH 2 with phosphoric acid) and acetonitrile at 50/50 (v/v), was applied at a flow rate of 1.0 mL min^−1. PCMX, 2,4-dihalophenols and 5-halosalicylic acids were detected at the wavelength of 230 nm. 2,5-Dihalohydroquinones and 2,6-DCQ were detected at the wavelength of 280 nm. All the degradation experiments were conducted in duplicate.
# [2] = Degradation in seawater in darkness (pH 6.2, 7.2, 8.2)
# Protocol: To study the DBP degradation in seawater in darkness, a DBP was added at 10 mg L^−1 to 50 mL pretreated seawater (pH 8.2) in the quartz flasks. The flasks were wrapped with aluminum foil to simulate the dark condition. The samples were kept at 20 °C in darkness for 0‒120 h, during which the sample was adjusted to pH 6.2 and 7.2 or maintained at pH 8.2 by adding 4 mM phosphate buffer (pH 6.2, 7.2, and 8.2, respectively).
# as §2
# [3] = Escherichia coli, ATCC25922, 5 min, pH 6.2, E. coli, pH 6.2
# [4] = Escherichia coli, ATCC25922, 5 min, pH 7.2, E. coli, pH 7.2
# [5] = Escherichia coli, ATCC25922, 5 min, pH 8.2, E. coli, pH 8.2
smiles,measurement,setting,value
"O=C(O)c1cc(Br)ccc1O [5-BSA, 5-bromosalicylic acid]",log reduction at 3000 µg/mL,E. coli (ATCC 25922); [3],0.221
same,log reduction at 3000 µg/mL,E. coli (ATCC 25922); [4],0.132
same,log reduction at 3000 µg/mL,E. coli (ATCC 25922); [5],0.331
same,E. coli inactivation rate constant k,E. coli (ATCC 25922),< 0.01 L mg‒1 h‒1
"Oc1cc(Cl)c(O)cc1Cl [2,5-DCHQ, 2,5-dichlorohydroquinone]",log reduction at 1200 µg/mL,"E. coli (ATCC 25922); Escherichia coli, ATCC25922, 5 min, pH 6.2, read-out: Log (N/N0), E. coli, pH 6.2",2.28
same,EC (3-log inactivation),"E. coli (ATCC 25922); Escherichia coli, ATCC25922, 5 min, pH 7.2, read-out: Dose for achieving 3-log inactivation of E. coli",946 µg/mL
same,log reduction at 1200 µg/mL,"E. coli (ATCC 25922); Escherichia coli, ATCC25922, 5 min, pH 7.2, read-out: Log (N/N0), E. coli, pH 7.2",3.73
same,log reduction at 1200 µg/mL,"E. coli (ATCC 25922); Escherichia coli, ATCC25922, 5 min, pH 8.2, read-out: Log (N/N0), E. coli, pH 8.2",4.18
same,E. coli inactivation rate constant k,E. coli (ATCC 25922),0.05 L mg‒1 h‒1
same,log reduction at 300 µg/mL,S. aureus (ATCC 25923),0.434
same,Normal development (%),P. dumerilii embryos; dilution factor 557.542,8.642% and 6.061%
same,Normal development (%),P. dumerilii embryos; dilution factor 1115.08,42.6369% and 40.0555%
same,Normal development (%),P. dumerilii embryos; dilution factor 1393.85,77.0891% and 77.2417%
same,Normal development (%),P. dumerilii embryos; dilution factor 2787.71,85.5556% and 87.7778%
same,Normal development (%),P. dumerilii embryos; dilution factor 5575.42,88.6789% and 83.1961%
same,half-life at 10 mg L−1,"[1]; buffer, pH 8.2",7.2 min
same,Ln (C/C0),"[1]; seawater pH 8.2, solar irradiation, 0 min",0
same,half-life at 10 mg L−1,"[2]; buffer, pH 8.2",7.8 min
same,Relative concentration remaining (1 at 0 min),"[2]; pH 6.2, degradation time 0 min",1
same,Relative concentration remaining (1 at 0 min),"[2]; pH 6.2, degradation time 15 min",1.022 and 0.9793
same,Relative concentration remaining (1 at 0 min),"[2]; pH 6.2, degradation time 30 min",0.9852 and 1.003
same,Relative concentration remaining (1 at 0 min),"[2]; pH 6.2, degradation time 60 min",1.02 and 0.9636
same,Relative concentration remaining (1 at 0 min),"[2]; pH 6.2, degradation time 90 min",0.9949 and 0.9533
same,Relative concentration remaining (1 at 0 min),"[2]; pH 6.2, degradation time 120 min",0.9685 and 0.9533
same,Relative concentration remaining (1 at 0 min),"[2]; pH 6.2, degradation time 180 min",0.9436 and 0.9061
same,Relative concentration remaining (1 at 0 min),"[2]; pH 6.2, degradation time 240 min",0.9109 and 0.8967
same,Relative concentration remaining (1 at 0 min),"[2]; pH 7.2, degradation time 0 min",1
same,Relative concentration remaining (1 at 0 min),"[2]; pH 7.2, degradation time 15 min",0.972 and 0.958
same,Relative concentration remaining (1 at 0 min),"[2]; pH 7.2, degradation time 30 min",0.8774 and 0.8538
same,Relative concentration remaining (1 at 0 min),"[2]; pH 7.2, degradation time 45 min",0.7996 and 0.7512
same,Relative concentration remaining (1 at 0 min),"[2]; pH 7.2, degradation time 60 min",0.6873 and 0.677
same,Relative concentration remaining (1 at 0 min),"[2]; pH 7.2, degradation time 90 min",0.5344 and 0.5155
same,Relative concentration remaining (1 at 0 min),"[2]; pH 7.2, degradation time 120 min",0.3928 and 0.369
same,Relative concentration remaining (1 at 0 min),"[2]; pH 7.2, degradation time 180 min",0.2793 and 0.2513
same,Relative concentration remaining (1 at 0 min),"[2]; pH 8.2, degradation time 0 min",1
same,Relative concentration remaining (1 at 0 min),"[2]; pH 8.2, degradation time 3 min",0.7671 and 0.7343
same,Relative concentration remaining (1 at 0 min),"[2]; pH 8.2, degradation time 8 min",0.4955 and 0.4354
same,Relative concentration remaining (1 at 0 min),"[2]; pH 8.2, degradation time 12 min",0.3245 and 0.3105
same,Relative concentration remaining (1 at 0 min),"[2]; pH 8.2, degradation time 16 min",0.2259 and 0.2074
same,Relative concentration remaining (1 at 0 min),"[2]; pH 8.2, degradation time 20 min",0.1584 and 0.1371
same,Relative concentration remaining (1 at 0 min),"[2]; pH 8.2, degradation time 25 min",0.1047 and 0.0786
same,Ln (C/C0),"[2]; seawater pH 8.2, darkness, 0 min",0
"O=C(O)c1cc(Cl)ccc1O [5-CSA, 5-chlorosalicylic acid]",log reduction at 3000 µg/mL,E. coli (ATCC 25922); [3],0.218
same,log reduction at 3000 µg/mL,E. coli (ATCC 25922); [4],0.273
same,log reduction at 3000 µg/mL,E. coli (ATCC 25922); [5],0.304
same,E. coli inactivation rate constant k,E. coli (ATCC 25922),< 0.01 L mg‒1 h‒1
"O=C1C=C(Cl)C(=O)C=C1Cl [2,5-DCQ]",Log reduction (Mean ± SD),E. coli (ATCC 25922); dose 7.5 mg L−1,0.77 ± 0.14
same,Log reduction (Mean ± SD),E. coli (ATCC 25922); dose 15 mg L−1,3.78 ± 0.40
"O=C(O)c1cc(I)ccc1O [5-ISA, 5-iodosalicylic acid]",log reduction at 3000 µg/mL,E. coli (ATCC 25922); [3],0.247
same,log reduction at 3000 µg/mL,E. coli (ATCC 25922); [4],0.373
same,log reduction at 3000 µg/mL,E. coli (ATCC 25922); [5],0.282
same,E. coli inactivation rate constant k,E. coli (ATCC 25922),< 0.01 L mg‒1 h‒1
